“Also recorded” adds a separate entry of the source.
Test system: neutrophils and PBMCs
Experiment: Radiolabeled DANBIRT uptake in isolated blood components after ozone exposure
Assay type: cell-based, rats
Conditions: rat blood collected 24 hours post-exposure, 1 hour incubation
Experimental: • 6 week old ApoE KO C57 black male • SPECT imaging 3 hrs and 24 hrs post tail vein Injection of ˜700 uCi (˜25.9 Mbq) of ^111In-DANBIRT • Autoradiography was performed 24 hrs PI of ^111In-DANBIRT after the last imaging time point, • We focused on 3 areas for our region of interest analysis: Aortic arch, carotids and thymus: normalized to muscle. • Whole blood incubation with ^68Ga-DANBIRT and subsequent neutrophil and PBMC isolation were performed from rat blood from animals exposed to filtered air and ozone. • 2 groups: Filtered air (n=3) and ozone (n=3) • Whole blood was collected 24 hrs post exposure • Whole Blood Separation was performed after incubation with ^68Ga-DANBIRT, obtaining 4 samples: serum, red blood cells, neutrophils and peripheral blood mononucleated cells. Staining was performed for specific morphology interpretation and smear cell line purity assessment. Results
Rats were exposed to either filtered air (FA) or ozone (1.0 ppm) for 4 hours using an OREC silent are discharge ozone generator (Osmonics, Phoenix, Ariz.); ozone concentrations were continuously monitored over the course of 4 hours. Exposures took place in a chamber without bedding to minimize ozone scrubbing and to ensure consistent nasal exposures. Whole blood was collected 24 hours post-exposure. Histopaque two-step gradient (Sigma Aldrich, 10771) neutrophil isolation protocol was performed following manufacturer's methods; modified protocol was included for PBMC isolation. Hetastarch at 5% (B. Braun, L6511) was added to whole blood before running isolation protocols. Cell samples were washed and suspended in 1% Gelatin in PBS at a pH of 7.2. Final volumes of neutrophil and PBMC samples were increased to 1 mL. Final samples were identified as serum, RBC, neutrophils and PBMCs and incubated for 1 hour with [^68Ga] Ga-DANBIRT (specific activity of 625 mCi/pM). […] Cell morphology, differentials and sample purity were assessed using a light microscope at 40× objective (Olympus BX51).

C[C@]1(Cc2ccc(Br)cc2)C(=O)N(c2cc(Cl)cc(Cl)c2)C(=O)N1CCCCNC(=O)CN1CCN2CCN3CCN(CC1)CC(=O)[O][68Ga]([O]C(=O)C2)[O]C(=O)C3 [[^68Ga] Ga-DANBIRT]
uptake in PBMCs post-ozone exposure: decreased uptake; also recorded: decrease | uptake in serum post-ozone exposure: decrease | uptake in neutrophils post 4-hour ozone exposure vs filtered air (p=0.008): increased uptake

From patent US10744214B2, “Method of diagnosing and/or monitoring therapy of atherosclerosis” (STC.UNM, priority 2015, dated 2020)
